From patent publication US11129801B2 (SigmaThera SAS, priority 2016, dated 2021)

What was measured:
sigma-1R = conditions: cited from earlier work
[1] = tested on: sigma-1 receptor / BiP complex; assay: Dissociation of BiP from sigma-1 receptor in CHO cells; assay type: cell-based; conditions: 10 μM NE100 with 10 μM igmesine
Description: CHO cells were grown in a 6-well plates and treated with the compounds in culture medium at 37° C. for 30 min at 1 μM and 10 μM final concentration. The reaction was stopped by medium removal and adding 3 mL PBS at 37° C. CHO cells were harvested and suspended in 50 mM HEPES (pH7.4) followed by cross-linking with 50 μg/ml of dithio (bis) succinimidyl propionate (Thermo Fisher Scientific, Waltham, Mass.) for 30 min at 4° C. The reaction was stopped by adding Tris-HCl (pH 8.8, final 50 mM). Fifteen minutes after incubation on ice, cells were lysed with RIPA buffer [50 mM Tris (pH7.4), 150 mM NaCl, 1% Triton X-100, 0.3% sodium deoxycholate, 0.1% SDS, protease inhibitor cocktail (Roche Complete)]. After centrifugation at 12,000 g, 1 min, the supernatant was incubated overnight at 4° C. with Sig-1R antibody (Abcam). The cell lysate was incubated with Sepharose protein-A (Invitrogen) for 90 min. After centrifugation at 12,000 g, 1 min, the supernatant was discarded and the pellet was washed in 0.5 mL RIPA buffer. After a second centrifugation at 12,000 g, 20 min, the supernatant was discarded and the pellet was washed in 0.5 mL 2× Sample buffer/bMCE buffer. Following a third centrifugation at 12,000 g, 1 min, the supernatant was analysed by ELISA assay, according to the manufacturer's protocol (USCNK #SEC343Mu).

[2] = tested on: Aβ25-35 mouse model of Alzheimer's disease; assay: Aβ25-35 mouse model, overall neuroprotection (summary statements); assay type: in vivo; conditions: versus usual doses; ibuprofen, atorvastatin after allometric scaling mouse to human
Description: (§1) The compound efficacy was evaluated 7 days after the peptide administration on the attenuation of the Aβ25-35-induced learning deficits (spatial working memory using the spontaneous alternation in the Y-maze test, and contextual long-term memory using the passive avoidance test).
(§2) The mice were tested 7 days post injection or at the indicated time points.
(§3) In Experiment 2, twelve mice per experimental group were administered Sc.Aβ or Aβ25-35-amyloid peptide on day 0 by i.c.v. injection. […] Animals were tested at day 7 and later.
(§4) The synergy/additivity/antagonism was evaluated by calculating the combination index. […] Animals were then tested at day 7 and later.
(§5) Animals were tested at day 7 and later.
(§6) For each of Experiments 1-4, on day 7, all animals were tested for the spontaneous alternation performance in the Y-maze test, an index of spatial working memory. On day 8 and 9, the contextual long-term memory of the animals was assessed using the step-through type passive avoidance procedure. On day 9, immediately after the retention session, animals were sacrificed by decapitation and the hippocampus and cortex dissected out. Lipid peroxidation was analyzed in the hippocampus, whereas neuroinflammation, apoptosis, amyloid burden and hyperphosphorylation of tau protein were analyzed in cortex.

[3] = tested on: Aβ25-35 mouse model of Alzheimer's disease; assay: Spontaneous alternation in the Y-maze, Aβ25-35 mouse model; assay type: in vivo; conditions: for protection from injury produced by Aβ25-35 treatment, single agent: Experiment 4, i.p. day 1 to day 6, dose dependent; for highest sub-active dose, spontaneous alternation: Experiment 3, i.p.
Description: as §1, §2, §3, §4, §5, §6
The homogeneous oligomeric preparation of Aβ25-35 peptide was performed according to the AMYLGEN's own procedure. Each mouse was anesthetized with isoflurane 2.5% and injected i.c.v. with Aβ25-35 peptide (9 nmol/mouse) or Sc.Aβ peptide (9 nmol/mouse), in a final volume of 3 μl/mouse, according to the previously described method (Maurice T, et al. (1996). Brain Res. 706(2): 181-193, Maurice T, et al. (1998) Neuroscience 83(2): 413-428, Meunier J, et al. (2006) British J. Pharmacol. 149(8): 998-1012, Villard V, et al. (2009) Neuropsychopharmacology 34(6): 1552-1566, Villard V, et al. (2011) J. Pharmacol. Sci. 115(3): 279-292).
Animals: Male Swiss mice, 6 weeks old and weighing 30-35 g, from JANVIER (Saint Berthevin, France), were kept for housing and experiments took place within the animal facility building of the University of Montpellier 2 (CECEMA, Office of Veterinary Services agreement #B-34-172-23). Animals were housed in groups with access to food and water ad libitum, except during behavioral experiments. They were kept in a temperature and humidity controlled animal facility on a 12 h/12 h light/dark cycle (lights off at 07:00 pm). Mice were numbered by marking their tail using permanent markers. All animal procedures were conducted in strict adherence to the European Union directive of Sep. 22, 2010 (2010/63/UE). Diagnostic summary reports of JANVIER were annexed to the study report.
Spontaneous alternation performance: Immediate working memory performance was assessed by recording spontaneous alternation behavior during a single session in a Y-maze as described previously (Itoh J, et al. (1993) Eur J Pharmacol 236(3): 341-345; Hiramatsu M and Inoue K (1999) Br J Pharmacol 127(3): 655-660). The Y-maze is made of grey polyvinylchloride. Each arm of the Y-maze was 40 cm long, 3 cm wide, and 13 cm high at the bottom, 10 cm wide at the top, and converging at an equal angle. Each mouse was placed at the end of one arm and allowed to move freely through the maze during an 8 min session. The series of arm entries, including possible returns into the same arm, was checked visually. An alternation was defined as entries into all three arms on consecutive occasions. The number of maximum alternations is therefore the total number of arm entries minus two and the percentage of alternation was calculated as (actual alternations/maximum alternations)×100. Parameters included the percentage of alternation (memory index) and total number of arm entries (exploration index).

SMILES	lowering of the partner drug's dose when associated with igmesine [2] [fold]	protection from injury produced by Aβ25-35 treatment, single agent [3]	further results
CCC(C/C=C/c1ccccc1)(c1ccccc1)N(C)CC1CC1 (stereo not shown) [JO-1783, reference compound]	–	–	potency relative to igmesine at the binding site (sigma-1R): ten times less potent
CCCN(CCC)CCc1ccc(OC)c(OCCc2ccccc2)c1 [NE100, reference compound]	–	–	antagonism of igmesine-induced BiP dissociation [1]: prevented
CC(C)c1c(C(=O)Nc2ccccc2)c(-c2ccccc2)c(-c2ccc(F)cc2)n1CC[C@@H](O)C[C@@H](O)CC(=O)O [atorvastatin, reference compound]	10	able to protect	–
COc1cc2c(cc1OC)C(=O)C(CC1CCN(Cc3ccccc3)CC1)C2 (stereo not shown) [donepezil, reference compound]	4	–	highest sub-active dose, spontaneous alternation [3]: 0.25 mg/kg
CC(C)Cc1ccc(C(C)C(=O)O)cc1 (stereo not shown) [ibuprofen, reference compound]	3	able to protect	–
CC12CC3CC(C)(C1)CC(N)(C3)C2 [memantine]	–	–	highest sub-active dose, spontaneous alternation [3]: 0.5 mg/kg
C#CCN(C)[C@H](C)Cc1ccccc1 [selegiline]	–	able to protect	–
